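Test compounds were applied to cells in 96-well plates for 48 hours at 5 doses. At the GI50, growth is halved. At the TGI there is no net growth.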
Assays:
Test in all cases: NCI tumour cell line growth inhibition, 48 h
[1] = system: UO-31 renal
[2] = system: SR leukemia
[3] = system: MALME-3M melanoma
[4] = system: MDA-MB-231 breast
[5] = system: SW-620 colon
[6] = system: SF-539 CNS
[7] = system: SF-268 CNS
[8] = system: HT29 colon
[9] = system: OVCAR-8 ovarian
[10] = system: BT-549 breast
[11] = system: NCI-H460 lung
[12] = system: UACC-257 melanoma
[13] = system: K-562 leukemia
[14] = system: SNB-19 CNS
[15] = system: NCI/ADR-RES ovarian
[16] = system: EKVX NSCLC
[17] = system: UACC-62 melanoma
[18] = system: OVCAR-3 ovarian
[19] = system: KM12 colon
[20] = system: HOP-92 NSCLC
[21] = system: HS 578T breast
[22] = system: TK-10 renal
[23] = system: NCI-H522 lung
[24] = system: RPMI-8226 leukemia
[25] = system: T-47D breast
[26] = system: MOLT-4 leukemia
[27] = system: COLO 205 colon
[28] = system: HCC-2998 colon
[29] = system: SN12C renal
[30] = system: CCRF-CEM leukemia
[31] = system: NCI-H23 lung
[32] = system: CAKI-1 renal
[33] = system: M14 melanoma
[34] = system: U251 CNS
[35] = system: SK-MEL-28 melanoma
[36] = system: HL-60(TB) leukemia
[37] = system: MDA-MB-468 breast
[38] = system: OVCAR-4 ovarian
[39] = system: A498 renal
[40] = system: LOX IMVI melanoma
[41] = system: HCT-15 colon
[42] = system: ACHN renal
[43] = system: PC-3 prostate
[44] = system: SK-MEL-2 melanoma
[45] = system: MDA-MB-435
[46] = system: 786-0 renal
[47] = system: SK-OV-3 ovarian
[48] = system: IGROV1 ovarian
[49] = system: OVCAR-5 ovarian
[50] = system: NCI-H226 lung
[51] = system: SK-MEL-5 melanoma
[52] = system: DU-145 prostate
[53] = system: SNB-75 CNS
[54] = system: MCF7 breast
[55] = system: A549 NSCLC
[56] = system: RXF 393 renal
[57] = system: SF-295 CNS
[58] = system: HCT-116 colon
[59] = system: HOP-62 NSCLC

With `CN1CCN(c2ccc3c(c2)nc(NNC(=O)c2cnccn2)c2cccn23)CC1` the GI50 [1] was 0.0964 µM, the TGI [1] was 1.51 µM and the GI50 [2] was 0.16 µM. For the same compound, the GI50 [3] was 1.62 µM, the TGI [3] was 6.99 µM and the GI50 [4] was 0.607 µM. For the same compound, the TGI [4] was 6.95 µM, the GI50 [5] was 0.638 µM and the TGI [5] was 12.6 µM. It also gave a GI50 [6] of 0.645 µM, a TGI [6] of 6.83 µM and a GI50 [7] of 0.479 µM. For the same compound, the TGI [7] was 13.2 µM, the GI50 [8] was 0.505 µM and the TGI [8] was 4.56 µM. For the same compound, the GI50 [9] was 0.383 µM, the TGI [9] was 7.01 µM and the GI50 [10] was 0.849 µM. For the same compound, the TGI [10] was 13.4 µM, the GI50 [11] was 0.229 µM and the TGI [11] was 4.72 µM. The GI50 [12] was 2.15 µM, the TGI [12] was 7.1 µM and the GI50 [13] was 0.631 µM. It also gave a TGI [13] of 11.6 µM, a GI50 [14] of 0.812 µM and a TGI [14] of 14.6 µM. The GI50 [15] was 0.829 µM, the TGI [15] was 2.97 µM and the GI50 [16] was 0.277 µM. The TGI [16] was 3.47 µM, the GI50 [17] was 0.444 µM and the TGI [17] was 2.71 µM. It also gave a GI50 [18] of 0.406 µM, a TGI [18] of 5.84 µM and a GI50 [19] of 0.359 µM. The TGI [19] was 14.9 µM, the GI50 [20] was 0.564 µM and the TGI [20] was 5.54 µM. It also gave a GI50 [21] of 3.6 µM, a TGI [21] of 70.3 µM and a GI50 [22] of 0.158 µM. For the same compound, the TGI [22] was 2.32 µM, the GI50 [23] was 0.944 µM and the TGI [23] was 6.69 µM. The GI50 [24] was 0.756 µM, the TGI [24] was 12.7 µM and the GI50 [25] was 1.72 µM. It also gave a TGI [25] of 9.44 µM, a GI50 [26] of 0.244 µM and a GI50 [27] of 0.445 µM. For the same compound, the TGI [27] was 9.94 µM, the GI50 [28] was 0.453 µM and the TGI [28] was 5.8 µM. The GI50 [29] was 0.583 µM, the TGI [29] was 11.8 µM and the GI50 [30] was 0.182 µM. It also gave a TGI [30] of 1.98 µM, a GI50 [31] of 0.801 µM and a TGI [31] of 12.3 µM. For the same compound, the GI50 [32] was 0.463 µM, the TGI [32] was 5.27 µM and the GI50 [33] was 0.517 µM. It also gave a TGI [33] of 3.87 µM, a GI50 [34] of 0.37 µM and a TGI [34] of 11.7 µM. For the same compound, the GI50 [35] was 0.719 µM, the TGI [35] was 12.1 µM and the GI50 [36] was 0.175 µM. For the same compound, the TGI [36] was 1.65 µM, the GI50 [37] was 0.324 µM and the TGI [37] was 2.37 µM. The GI50 [38] was 0.605 µM, the TGI [38] was 12.9 µM and the GI50 [39] was 1.77 µM. It also gave a TGI [39] of 3.32 µM, a GI50 [40] of 0.203 µM and a TGI [40] of 6.25 µM. It also gave a GI50 [41] of 0.109 µM, a TGI [41] of 1.79 µM and a GI50 [42] of 0.256 µM. The TGI [42] was 1.74 µM, the GI50 [43] was 0.386 µM and the TGI [43] was 8.51 µM. The GI50 [44] was 1.21 µM, the TGI [44] was 6.14 µM and the GI50 [45] was 1.96 µM. The TGI [45] was 18.4 µM, the GI50 [46] was 0.401 µM and the TGI [46] was 2.4 µM. For the same compound, the GI50 [47] was 0.538 µM, the TGI [47] was 5.02 µM and the GI50 [48] was 0.413 µM. The TGI [48] was 10.7 µM, the GI50 [49] was 1.18 µM and the TGI [49] was 12.1 µM. It also gave a GI50 [50] of 0.801 µM, a TGI [50] of 3.12 µM and a GI50 [51] of 1.09 µM. The TGI [51] was 2.77 µM, the GI50 [52] was 0.912 µM and the TGI [52] was 8.58 µM. For the same compound, the GI50 [53] was 2.93 µM, the TGI [53] was 18 µM and the GI50 [54] was 0.697 µM. For the same compound, the TGI [54] was 7.5 µM, the GI50 [55] was 0.768 µM and the TGI [55] was 12.1 µM. It also gave a GI50 [56] of 1.06 µM, a TGI [56] of 3.35 µM and a GI50 [57] of 0.229 µM. For the same compound, the TGI [57] was 3.15 µM, the GI50 [58] was 0.259 µM and the TGI [58] was 5.61 µM. For the same compound, the GI50 [59] was 0.361 µM and the TGI [59] was 11.3 µM.

For `CC(C)N=C([Se])NC(=O)c1cccs1`, the GI50 [1] was 13.8 µM, the TGI [1] was 26.7 µM and the GI50 [2] was 12.6 µM. The TGI [2] was 49.9 µM, the GI50 [3] was 17 µM and the TGI [3] was 33.2 µM. For the same compound, the GI50 [4] was 17.6 µM, the TGI [4] was 36.1 µM and the GI50 [5] was 16.7 µM. It also gave a TGI [5] of 33 µM, a GI50 [6] of 13.2 µM and a TGI [6] of 26.1 µM. It also gave a GI50 [7] of 19.9 µM, a TGI [7] of 57.1 µM and a GI50 [8] of 18.4 µM. It also gave a TGI [8] of 46.6 µM, a GI50 [9] of 15.6 µM and a TGI [9] of 29.5 µM. It also gave a GI50 [10] of 15.4 µM, a TGI [10] of 31 µM and a GI50 [11] of 3.37 µM. For the same compound, the TGI [11] was 19 µM, the GI50 [12] was 15.5 µM and the TGI [12] was 29.8 µM. The GI50 [13] was 28.4 µM, the TGI [13] was 87.1 µM and the GI50 [14] was 4.82 µM. It also gave a TGI [14] of 20 µM, a GI50 [16] of 7.45 µM and a TGI [16] of 20.8 µM. The GI50 [17] was 14.1 µM, the TGI [17] was 28.7 µM and the GI50 [18] was 14.9 µM. The TGI [18] was 28.6 µM, the GI50 [19] was 12.1 µM and the TGI [19] was 26.2 µM. For the same compound, the GI50 [20] was 22.1 µM, the TGI [20] was 51.6 µM and the GI50 [21] was 7.16 µM. It also gave a TGI [21] of 32 µM, a GI50 [22] of 16 µM and a TGI [22] of 29.5 µM. It also gave a GI50 [23] of 14.4 µM, a TGI [23] of 28.1 µM and a GI50 [24] of 19.9 µM. The TGI [24] was 56.4 µM, the GI50 [25] was 19.4 µM and the TGI [25] was 48.8 µM. The GI50 [26] was 20.8 µM, the TGI [26] was 58.1 µM and the GI50 [27] was 16.8 µM. For the same compound, the TGI [27] was 31.7 µM, the GI50 [28] was 5.8 µM and the TGI [28] was 18.4 µM. The GI50 [29] was 10.9 µM, the TGI [29] was 23.9 µM and the GI50 [30] was 17.4 µM. For the same compound, the TGI [30] was 50.6 µM, the GI50 [31] was 10.2 µM and the TGI [31] was 23.8 µM. For the same compound, the GI50 [32] was 17 µM, the TGI [32] was 32.6 µM and the GI50 [33] was 12.7 µM. It also gave a TGI [33] of 26.6 µM, a GI50 [34] of 7.84 µM and a TGI [34] of 21.5 µM. For the same compound, the GI50 [35] was 16.9 µM, the TGI [35] was 35.1 µM and the GI50 [36] was 20.3 µM. The TGI [36] was 55.6 µM, the GI50 [37] was 16.5 µM and the TGI [37] was 34.6 µM. The GI50 [38] was 16.8 µM, the TGI [38] was 36 µM and the GI50 [39] was 6.55 µM. The TGI [39] was 59.2 µM, the GI50 [40] was 13.2 µM and the TGI [40] was 27.2 µM. It also gave a GI50 [41] of 18.4 µM, a TGI [41] of 37.5 µM and a GI50 [42] of 18 µM. It also gave a TGI [42] of 37.4 µM, a GI50 [43] of 4.06 µM and a TGI [43] of 16.6 µM. It also gave a GI50 [44] of 15.7 µM, a TGI [44] of 34.5 µM and a GI50 [45] of 16.3 µM. The TGI [45] was 33 µM, the GI50 [46] was 17.7 µM and the TGI [46] was 31.9 µM. The GI50 [47] was 16.2 µM, the TGI [47] was 30.5 µM and the GI50 [48] was 8.04 µM. It also gave a TGI [48] of 21.1 µM, a GI50 [49] of 16 µM and a TGI [49] of 31.4 µM. The GI50 [50] was 16.3 µM, the TGI [50] was 35.3 µM and the GI50 [51] was 2.82 µM. It also gave a TGI [51] of 14.3 µM, a GI50 [52] of 19.3 µM and a TGI [52] of 40 µM. The GI50 [53] was 5.51 µM, the TGI [53] was 21.3 µM and the GI50 [54] was 6.58 µM. For the same compound, the TGI [54] was 35.2 µM, the GI50 [55] was 4.3 µM and the TGI [55] was 33.1 µM. The GI50 [56] was 12.2 µM, the TGI [56] was 24.8 µM and the GI50 [57] was 2.18 µM. It also gave a TGI [57] of 6.77 µM, a GI50 [58] of 4.78 µM and a TGI [58] of 18.4 µM. For the same compound, the GI50 [59] was 4.11 µM and the TGI [59] was 19.1 µM.

Reference: PubChem BioAssay (NCI)
